Here are results for two compounds from patent US4170645A, “Antibacterial agent BM123γ, salts and alkyl derivatives thereof for the control of shipping fever in cattle” (American Cyanamid Company, priority 1978, dated 1979).

One test concerns Pasteurella. Description: Bacterial isolation from tissues of sacrificed treated calves. Conditions: Calf No. 4, 4 days administered. It counts as in vivo. From the text: At the end of the experiment, six calves are sacrificed, and animal tissues examined for aerobic and anaerobic bacteria. Pasteurella are isolated and identified from three of the sacrificed calves. No anaerobes are recovered from any tissues.

For test [1], the system named is shipping fever. In words: Control of shipping fever in young cattle: mortality and days to return to normal temperature (Example 2). The note with it: 11.0 mg/kg i.m., 3 daily injections. It counts as in vivo, calves. An excerpt: In vivo activity of Isopropyl BM123γ for the control of shipping fever in young cattle as compared to oxytetracycline.
Calves weighing 90.6 to 181.2 Kg received at the feedlot are processed as is normally done, except no antibacterial treatment is given. Processing includes vaccination with Infectious Bovine Rhinotracheitis (Bovine virus Diarrhea) Leptospirosis vaccine, administration of a Clostridium novyi, septicum, sordelli, chauvei bacterin, levamisole (1/2 oblet), i.m. administration of 3 ml of a vitamin A, D and E formulation, a pour-on formulation of 0,0-dimethyl-0-(2,4,5-trichlorophenyl) ester of phosphorothioic acid for the control of grubs and lice, and one DES (diethylstilbestrol) implant in an ear. In addition--and at the same time--the calves are branded, ear tagged, dehorned and castrated where applicable.
One to two days after arrival and processing, sick calves are removed from the holding pens and those with temperatures of 40.0° C. or higher and showing symptoms of respiratory disease are selected for the study.
A total of 300 calves are randomly allotted to four groups of 75 calves each. One group serves as infected unmedicated controls receiving a "blank" solution, the others receive intramuscularly between hip and pin bones, for a total of 3 daily injections of:
a. 11 mg/kg body weight of oxytetracycline, the maximum recommended dose;
b. 0.5 mg/kg body weight of Isopropyl BM123γ; or
c. 1.0 mg/kg body weight of Isopropyl BM123γ.
The preparation and composition of injectables for "b" and "c" are described in Example 5 below.
Temperatures are recorded daily until two successive readings of 39.7° C. or lower are recorded, at which time calves are moved from the "sick" pen to the "recovered" pen. Although some of the "recovered" calves continue to show symptoms of disease, the criterion of body temperature is selected since it is completely objective.
One hundred fifty-four calves are treated the first day, fifty the second and 96 the third day. Following treatment, each animal is observed and its temperature recorded for a total of 14 consecutive days. Each animal which dies is necropsied and duplicate samples of lung and mediastinal lymph node are taken for microbiological examination. Necropsy examinations confirm the presence of severe pneumonia in most animals which died.
These calves died early in the study from conditions which the treatments should not have been expected to control.

For test [2], the system named is shipping fever. Description: Gross necropsy findings of sacrificed treated calves. Conditions: Calf No. 4 (d), 4 days administered. It counts as in vivo.
For test [3], the system named is shipping fever. Description: Efficacy in depressing the body temperature of calves having shipping fever (Example 1). It counts as in vivo. The note with it: 13 mg/kg i.m., three or four consecutive days. An excerpt:
In vivo activity of BM123γ-hydrochloride and of isopropyl BM123γ for the control of shipping fever in calves.
Two hundred sick calves, with elevated temperatures and clinical signs of shipping fever are chosen for the experiment. The animals are allotted to four groups of 50 calves each. One group serves as nonmedicated, infected controls receiving placebos, the other groups receive intramuscular injections of the respective drugs for three or four consecutive days at the levels indicated in Table 1. […]

Test [4] has as its system P. multocida. In words: MIC by tube dilution method against P. multocida (Example 3). It counts as cell-based. The note with it: 24 hours, 37° C. As to the method:
(§1) In vitro determination of the potency of Isopropyl BM123γ compared with oxytetracycline and gentamicin in selected bacterial isolates by a tube dilution method.
(§2) Serial two-fold dilutions of antibacterial agent are prepared in trypticase soy broth. To each tube containing 5 ml of broth, is added 0.1 ml of 10^-3 dilution of bacterial inoculum, adjusted prior to dilution of 44 percent transmission at 645 m,u. An inoculated broth, containing no drug is included as growth for each strain tested.

Test [5] has as its system P. hemolytica. In words: MIC by tube dilution method against P. hemolytica (Example 3). It counts as cell-based. The note with it: 24 hours, 37° C. The procedure:
as §1, §2

Test [6] concerns P. multocida. Description: In vitro minimal inhibitory concentration against P. multocida isolates (Example 1). It counts as cell-based. As to the method:
(§3) Minimal inhibitory concentrations (MIC) of eight Pasteurella isolates are also determined.

Test [7] deals with P. hemolytica. In words: In vitro minimal inhibitory concentration against P. hemolytica isolates (Example 1). It counts as cell-based. The procedure: as §3

With `CN(C)C1C(=O)C(C(N)=O)=C(O)C2(O)C(=O)C3=C(O)c4c(O)cccc4C(C)(O)C3C(O)C12` (stereo not drawn) [Oxytetracycline], the Bacteria isolated result in the test with Pasteurella is recorded as “P. Hemolytica + P. multocida”. The Total cfu/g with Pasteurella (P. Hemolytica + P. multocida) is 9.1 × 10^6 cfu/g. For the same compound, in the test with shipping fever [1], the “Mortality, Percent” value is 5.6% and the “average number of days to return to normal temperature” value was 5.33 days. Further, the “Mortality, No. of Animals” value in the test on shipping fever [1] (group of 75) is 4 No. of Animals. The “Days to Normal, No. of Animals” value with shipping fever [1] (normal = two successive readings of 39.7° C. or lower) is on record as 72 No. of Animals. The “Lung findings at necropsy” value in the test with shipping fever [2] was “The lungs were consolidated and had miliary abscesses in 60% of their volume”. Also, in the test with shipping fever [3], the “Calves below 39.4° C./total, 2 days after last Injection” value was 22/38 and the “Percent of calves below 39.4° C., 2 days after last Injection” value was 58%. Besides, the “Mean Temperature 2 days after last Injection” value in the test with shipping fever [3] (mean initial 40.7) is 39.4 °C.

On to Gentamicin, for which the minimum inhibitory concentration (MIC) came to 4.0 µg/mL in the test on P. multocida [4] (isolate No. 1); 4.0 µg/mL in the test on P. multocida [4] (isolate No. 2); 8.0 µg/mL with P. multocida [4] (isolate No. 3); 4.0 µg/mL in the test on P. multocida [4] (isolate No. 4); 4.0 µg/mL in the test on P. multocida [4] (isolate No. 5); 4.0 µg/mL against P. multocida [4] (isolate No. 6). Further, the MIC was found to be 4.0 µg/mL against P. multocida [4] (isolate No. 7); 8.0 µg/mL with P. hemolytica [5] (isolate No. 1); 8.0 µg/mL against P. hemolytica [5] (isolate No. 2); 4.0 µg/mL in the test with P. hemolytica [5] (isolate No. 3); 8.0 µg/mL against P. hemolytica [5] (isolate No. 4); 4.0 µg/mL in the test on P. hemolytica [5] (isolate No. 5). The MIC in the test with P. multocida [6] (isolate No. 6) was determined as 2 µg/mL; against P. multocida [6] (isolate No. 7) it was 2 µg/mL; with P. multocida [6] (isolate No. 8), 2 µg/mL; against P. hemolytica [7] (isolate No. 1) it was 4 µg/mL; against P. hemolytica [7] (isolate No. 2) it was 8 µg/mL; in the test with P. hemolytica [7] (isolate No. 3), 2 µg/mL. Further, the MIC with P. hemolytica [7] (isolate No. 4) and in the test with P. hemolytica [7] (isolate No. 5) was 4 µg/mL each time.
